In patent US20240391928A1, “COMPOSITIONS FOR THE TREATMENT OF FOOD AND CHEMICAL ADDICTION AND METHODS OF MAKING AND USING SAME” (Duke University, priority 2021, published 2024):
Entries after “also recorded” stand apart in the source; their conditions may differ.

Tests used:
[1] = target: T1, hGHSR1a^WT-LgBiT / SmBiT-β-arr2 (Homo sapiens, UniProt Q92847); test: NanoBiT β-arr2 recruitment; type: cell-based
T1 construct: expressed in transfected cells; host or cells: HEK293/T, transient
Procedure: (§2) β-arr2 recruitment: In agonist and antagonist assays of NanoBiT-based β-arr2 recruitment, hGHSR1a^WT-Lg^BiT and ^SmBiT-β^WT were transiently co-transfected at a 1:1 ratio (250 μg each) into monolayers of HEK293/T cells on 6-well plates along with 2 μg of pcDNA3.1. For assays employing the Ala204Glu variant, hGHSR1a^A204E-Lg^BiT was transfected at 2×hGHSR1a^WT-Lg^BiT, as performed for iCa^2+ assays with hGHSR1a^A204E described above. For GHSR1a-β-arr2 saturation assays, a fixed amount of hGHSR1a^WT-Lg^BiT cDNA (250 μg) was transfected with 0, 62.5 (1:0.25), 125 (1:0.5), 250 (1:1), 500 (1:2), or 1000 (1:4) μg of ^SmBiTβ-arr^WT. The morning after transfection, media was exchanged and after 4-6 hours, cells were then plated on white 96-well, clear-bottomed assay plates at a density of 45,000 cells/well in opti-MEM supplemented with 2% FBS and antibiotic/antimycotic. The following morning, opti-MEM was removed and cells were incubated with 70-80 μL HBSS supplemented with 20 mM HEPES (pH 7.4) for 4 hours. Cells were then treated with 10 μL of coelenterazine H (5 μM final) for 15-20 minutes at room temperature. Cells were then stimulated with 10 μL of test compounds and 2 minutes later, luminescence was measured over 5 minutes, which encompassed the peak β-arr2 recruitment signal.

GHSR1a^N305A = target: T2, GHSR1a^N305A (Homo sapiens, UniProt Q92847, N305A); test: iCa2+ at N305A mutant; type: cell-based
T2 construct: expressed in transfected cells; host or cells: HEK293/T
Procedure: (§1) For experiments with WT and Gt KO HEK293/S cells, […] of hGHSR1a^WT, 10 μg of miAEQ, and 2.5 μg of pcDNA3.1 was transiently transfected into 10 cm dishes and incubated overnight. […] Twenty-four hours later, experiments proceeded in accordance with the procedures described above. To control for any possible kinetic differences in genetically modified cell lines or GHSR1a variants, the average ligand-induced response over 10 seconds was calculated, then normalized by dividing the L-miAeq by the L-miAeq plus the Lysis-miAeq and normalized to the appropriate control/reference condition.

GHSR1a^P200A = target: T3, GHSR1a^P200A (Homo sapiens, UniProt Q92847, P200A); test: Gαq dissociation and iCa2+ at P200A mutant; type: cell-based
T3 construct: expressed in transfected cells; host or cells: HEK293/T
Procedure: as §1

GHSR1a^R199A = target: T4, GHSR1a^R199A (Homo sapiens, UniProt Q92847, R199A); test: Gαq dissociation and iCa2+ at R199A mutant; type: cell-based
T4 construct: expressed in transfected cells; host or cells: HEK293/T
Procedure: as §1

mGHSR A199P = target: T5, mGHSR A199P (Mus musculus, UniProt Q99P50, A199P); test: Gαq dissociation and β-arr2 recruitment at humanized mouse receptor; type: cell-based
T5 construct: expressed in transfected cells
Procedure: To assess if N8279 signaling required receptor sites within and/or conformational states are conserved from the mouse receptor to the human receptor, the amino acid sequences for variations within the ECL2 were first determined (FIG. 17A). Mutations were made to human GHSR1a receptor (hGHSR) for W193R and P200A and to mouse GHSR1a receptor (mGHSR) for […]. N8279-stimulated Gαq dissociation (FIG. 17B) and β-arr2 recruitment (FIG. 17C) were evaluated for each hGHSR and mGHSR mutants in comparison to endogenous (WT) receptors.

[2] = Pharmacokinetic analysis in C57BL/6 mice
Procedure: Pharmacokinetic Analysis. Male C57BL/6 mice were used for pharmacokinetic studies and were purchased from Charles River Laboratories. DAT KO mice were backcrossed for >10 generations onto a C57BL/6J (Jackson Laboratory, Bar Harbor, ME) genetic background. Mice were bred and maintained on a standard 12:12 hour light:dark cycle, socially housed, and supplied with standard laboratory chow and water ad libitum, except during testing. […] Plasma, brain and liver samples were collected over 24 hours. […] The mean concentration from 3 animals at each time-point was used in the pharmacokinetic (PK) analysis. PK parameters were calculated with Phoenix WinNonlin Software (Ver. 8.0, Certara).

C57BL/6J mice = test: Novelty-induced open-field locomotion in WT mice; type: in vivo, mouse; settings: 2.5, 5, 10 mg/kg IP
Procedure: N=14-17 mice per treatment group.
Novelty-induced locomotor activity in DAT KO and inbred C57BL/6J mice. Open-field locomotor activity in mice was performed similar to that described in Barak et al., ACS Chem Biol. (2016)11(7):1880-90, the disclosure of which is incorporated herein in its entirety. In brief, Age- and sex-matched, littermate DAT KO and inbred C57BL/6J mice between 2-6 months of age were used to measure locomotor activity in an Omnitech Digiscan activity monitor (20×20 cm2; Accuscan Instruments, Columbus, OH). Locomotor activity was measured at 5 minutes intervals.

hGHSR1a^A204E [3] = target: T6, hGHSR1a^A204E (Homo sapiens, UniProt Q92847, A204E); settings: C/R curve did not saturate
Target sequence in this assay (Q92847 whole entry A204E): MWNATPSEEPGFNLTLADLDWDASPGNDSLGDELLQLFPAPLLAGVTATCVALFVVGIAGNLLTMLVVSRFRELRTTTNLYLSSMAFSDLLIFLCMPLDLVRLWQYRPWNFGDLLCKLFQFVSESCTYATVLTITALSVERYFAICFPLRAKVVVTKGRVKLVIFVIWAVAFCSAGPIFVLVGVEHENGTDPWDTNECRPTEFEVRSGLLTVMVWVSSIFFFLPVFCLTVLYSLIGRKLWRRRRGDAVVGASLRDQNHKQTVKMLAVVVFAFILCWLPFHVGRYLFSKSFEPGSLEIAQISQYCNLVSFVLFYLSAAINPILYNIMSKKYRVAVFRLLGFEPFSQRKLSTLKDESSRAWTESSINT
Procedure: (§3) BRET-based Gαq Dissociation & β-arr2 Recruitment Assays. TRUPATH Gα dissociation: Gαq/i1/i2/OA/12/13/sS^RLuc8 and Gγ8^GFP2 or Gγ9^GFP2 were transiently co-transfected with human 3×HA-GHSR1a^WT and untagged Gβ3 at a 1:1:1:1 ratio (100 μg each) into monolayers of HEK293/T cells along with 1.6 μg pcDNA3.1. The next morning, media (DMEM supplemented with 10% FBS and antibiotic/antimycotic) was exchanged and after 4-6 hours, cells were plated on white 96-well, clear-bottomed assay plates at a density of 40,000-50,000 cells/well in opti-MEM supplemented with 2% FBS and antibiotic/antimycotic. The next morning, opti-MEM was removed and cells were incubated with 80 μL HBSS supplemented with 20 mM HEPES (pH 7.4) for 4 hours. Cells were then treated with 10 μL of the luminescent substrate, coelenterazine 400a (5 μM final), for 5 minutes at room temperature prior to the addition of 10 μL of test compound. Five minutes after ligand application, luminescence was measured by a Mithras 940 plate reader over 30 minutes and the maximal response was utilized for generating all C/R curves.

human GHSR1a^WT (Gαq) = human GHSR1a^WT (Gαq) (Homo sapiens, UniProt Q92847); test: TRUPATH (BRET) Gαq dissociation
Procedure: as §3

hGHSR1a^A204E [4] = target: T6, hGHSR1a^A204E; test: NanoBiT β-arr2 recruitment at A204E variant; settings: did not reach saturation
Target sequence in this assay (Q92847 whole entry A204E): as above
Target sequence in this assay (P32121 whole entry partner): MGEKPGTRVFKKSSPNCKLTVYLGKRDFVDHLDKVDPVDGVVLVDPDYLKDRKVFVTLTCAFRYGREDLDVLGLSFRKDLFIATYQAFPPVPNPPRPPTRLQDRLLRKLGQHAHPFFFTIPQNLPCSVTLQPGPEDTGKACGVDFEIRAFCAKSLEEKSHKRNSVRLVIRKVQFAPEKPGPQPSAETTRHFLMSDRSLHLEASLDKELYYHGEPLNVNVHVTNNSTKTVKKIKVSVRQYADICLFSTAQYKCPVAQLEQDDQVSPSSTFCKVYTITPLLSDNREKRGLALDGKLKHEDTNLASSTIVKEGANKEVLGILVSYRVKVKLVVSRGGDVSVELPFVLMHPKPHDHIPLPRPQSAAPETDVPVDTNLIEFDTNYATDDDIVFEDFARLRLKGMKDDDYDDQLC
Procedure: as §2

hGHSR1a^A204E [5] = target: T6, hGHSR1a^A204E; test: iCa2+ at A204E variant; type: cell-based; parameters: expressed in transfected cells; host or cells: HEK293/T, transient
Procedure: as §1
Target sequence in this assay (Q92847 whole entry A204E): as the sequence (Q92847 whole entry A204E) above

[6] = 5 minute pretreatment, ghrelin 40 nM

Sequence of human GHSR1a^WT (Gαq) (Q92847 whole entry): as the sequence (Q92847 whole entry A204E) above, with E204A counted along it
T1 sequence (Q92847 whole entry): as the sequence (Q92847 whole entry A204E) above, with E204A counted along it
T1 sequence (P32121 whole entry partner): as the sequence (P32121 whole entry partner) above
T5 sequence (Q99P50 whole entry A199P): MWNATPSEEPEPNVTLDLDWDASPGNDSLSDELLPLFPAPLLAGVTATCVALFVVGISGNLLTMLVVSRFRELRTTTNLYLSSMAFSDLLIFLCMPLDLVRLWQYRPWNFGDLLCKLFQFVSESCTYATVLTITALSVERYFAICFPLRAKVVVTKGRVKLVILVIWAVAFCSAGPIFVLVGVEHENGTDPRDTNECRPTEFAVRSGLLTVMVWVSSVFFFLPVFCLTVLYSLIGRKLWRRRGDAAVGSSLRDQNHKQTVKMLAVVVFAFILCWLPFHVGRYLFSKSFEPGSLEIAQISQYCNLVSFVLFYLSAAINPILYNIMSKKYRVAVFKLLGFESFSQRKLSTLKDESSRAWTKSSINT
T4 sequence (Q92847 whole entry R199A): as the sequence (Q92847 whole entry A204E) above, with R199A, E204A counted along it
T2 sequence (Q92847 whole entry N305A): as the sequence (Q92847 whole entry A204E) above, with E204A, N305A counted along it
T3 sequence (Q92847 whole entry P200A): as the sequence (Q92847 whole entry A204E) above, with P200A, E204A counted along it

COc1ccc(C(=O)c2c(C(=O)NCCCN(C)C)oc3ccc(Cl)cc3c2=O)cc1OC [Example N8279, 6-Chloro-3-(3,4-dimethoxybenzoyl)-N-(3-(dimethylamino)propyl)-4-oxo-4H-chromene-2-carboxamide]
NanoBiT β-arr2 recruitment, fold less potent than L585 [1]: ~43 fold
NanoBiT β-arr2 recruitment, fold less potent than ghrelin [1]: ~20 fold
inhibition of EC80 ghrelin-induced β-arr2 recruitment in words [1, 6]: significantly, but incompletely
inhibition of EC80 ghrelin-induced β-arr2 recruitment, fold less potent than JMV2959 [1, 6]: 1.7 fold
inhibition of EC80 ghrelin-induced β-arr2 recruitment, fold less potent than YIL781 [1, 6]: 2.9 fold
relative affinity (BiTd) of β-arr2 for GHSR1a, fold weaker than in ghrelin-treated cells ([1]; saturation, N8279 100-200 nM vs ghrelin 100 nM): 22.5 fold
iCa2+ potency reduction at GHSR1a^N305A (GHSR1a^N305A): 6.5 fold
potency and Emax at GHSR1a^P200A in words (GHSR1a^P200A): reduced dramatically
potency at GHSR1a^R199A in words (GHSR1a^R199A): did not affect
signaling at humanized mGHSR in words (mGHSR A199P): rescues
brain:plasma ratio ([2]; IP): 0.6-0.9
AUCextrap ([2]; IP 5 mg/kg, brain): 7.1%
AUC ratio (tissue/plasma) ([2]; IP 5 mg/kg, brain/plasma): 0.6
AUCextrap ([2]; IP 5 mg/kg, liver): 0.1%
AUC ratio (tissue/plasma) ([2]; IP 5 mg/kg, liver/plasma): 49
AUCextrap ([2]; IP 5 mg/kg, plasma): 0.6%
AUCextrap ([2]; IV 1 mg/kg, brain): 10%
AUC ratio (tissue/plasma) ([2]; IV 1 mg/kg, brain/plasma): 0.8
AUCextrap ([2]; IV 1 mg/kg, liver): 0.2%
AUC ratio (tissue/plasma) ([2]; IV 1 mg/kg, liver/plasma): 40
AUCextrap ([2]; IV 1 mg/kg, plasma): 2.4%
AUCextrap ([2]; PO 5 mg/kg, brain): 24%
AUC ratio (tissue/plasma) ([2]; PO 5 mg/kg, brain/plasma): 0.9
AUCextrap ([2]; PO 5 mg/kg, liver): 0.1%
AUC ratio (tissue/plasma) ([2]; PO 5 mg/kg, liver/plasma): 77
AUCextrap ([2]; PO 5 mg/kg, plasma): 11%
brain half-life (t1/2) after IP and PO administration ([2]; brain, IP and PO 5 mg/kg): 6.6 to 11 h
bioavailability ([2]; male, C57BL/6, mouse, in vivo, ip, 5 mg/kg): 27%
AUC(0-t) ([2]; male, C57BL/6, mouse, liver, iv, 1 mg/kg): 57100 ng·h/mL
Cmax ([2]; read-out: peak concentration (Cmax) in brain, IP 5 mg/kg, brain): 259 nM
novelty-induced open-field locomotion in words (C57BL/6J mice): No statistically significant differences; also recorded: did not affect
Gαq dissociation potency reduction at GHSR1a^A204E vs WT (hGHSR1a^A204E [3]): > 20 fold
BRET-Gαq potency, fold less potent than L585 (human GHSR1a^WT (Gαq)): 1.7 fold
BRET-Gαq potency, fold less potent than ghrelin (human GHSR1a^WT (Gαq)): 6.1 fold
Gαq activation efficacy in words (human GHSR1a^WT (Gαq); NanoBiT and BRET (TRUPATH) assays): full agonist
β-arr2 recruitment potency reduction at GHSR1a^A204E vs WT (hGHSR1a^A204E [4]): > 20 fold
iCa2+ efficacy at GHSR1a^A204E in words (hGHSR1a^A204E [5]): full agonism was retained
iCa2+ potency reduction at GHSR1a^A204E vs WT (hGHSR1a^A204E [5]): 6.5 fold
